The subject of the assay is HIV-1 (NL4-3 strain). Description: Assay for Inhibition of HIV Replication (kinetic assay, MT4-gag-GFP reporter cell line; VIKING). The assay is classed as cell-based. The protocol:
This assay is a kinetic assay that employs a reporter cell line (MT4-gag-GFP) to quantify the number of new cells infected in each round of replication.
MT4-GFP cells (250,000 cells/ml) were bulk-infected with HIV-1 (NL4-3 strain) at low multiplicity of infection (MOI) in RPMI cell culture medium+10% FBS for 24 hours. Cells were then washed once in RPMI cell culture medium+10% FBS and resuspended in RPMI cell culture medium+0% or 10% or 100% normal human serum (NHS). Test compounds were serial-diluted in DMSO on an ECHO® liquid handler. The infected MT4-GFP cells were added to a 384-well poly-D-lysine coated black plate with clear bottom in which the diluted test compounds were placed. The cells were seeded at 8,000 cells per well and the final DMSO concentration was 0.4%. The infected cells (Green GFP cells) were quantified at both 24 and 48 hours post incubation using Acumen eX3. Viral reproductive ratio (R0) was determined using the number of infected cells at 48 hours divided by the number of infected cells at 24 hours. Percent viral growth inhibition was calculated by [1-(R-Rtripledrug),/(RDMSO-Rtripledrug)]*100. Compound potency IP or IC50 was determined by a 4-parameter dose response curve analysis. In vitro potency in the cell-based assay in the absence of normal human serum (NHS) and the presence of 100% NHS.

[1] abbreviates: MT4-GFP cells infected with HIV-1 NL4-3, 0% normal human serum (NHS), read-out: VIKING IP50 (nM) with 0% NHS.
Setting [2] is: MT4-GFP cells infected with HIV-1 NL4-3, 100% normal human serum (NHS), read-out: VIKING IP50 (nM) with 100% NHS.
Where [3] appears, read: Human immunodeficiency virus 1, NL43, MT4-GFP cells infected with HIV-1 NL4-3, 100% normal human serum (NHS), read-out: VIKING IP50 (nM) with 100% NHS.
Where [4] appears, read: Human immunodeficiency virus 1, NL43, MT4-GFP cells infected with HIV-1 NL4-3, 0% normal human serum (NHS), read-out: VIKING IP50 (nM) with 0% NHS.

SMILES strings stand for the structures. Where two headings read alike, the source gives them in different places.

Take `C[C@H]1CN2C(=O)c3c(O)c(=O)c(C(=O)NCc4cccc(Cl)c4F)c4n3C(CC4)C2N1C` (some centres unmarked) [Compound 105]: the IC50 amounted to 0.495 nM under setting [1] and 32.6 nM under setting [2].
For `C[C@H]1CNC2C3CCc4c(C(=O)NCc5cccc(Cl)c5F)c(=O)c(O)c(n43)C(=O)N21` (some centres unmarked) [Compound 89], in that order: 0.709 nM and 120 nM.
For the molecule `C[C@H]1CCOC2C3CCc4c(C(=O)NCc5ccc(F)cc5F)c(=O)c(O)c(n43)C(=O)N21` (single isomer, unassigned) [Compound 61], the IC50 came to 8000 nM under setting [3] and 22.1 nM under setting [1].
With `O=C(NCc1ccc(F)cc1F)c1c2n3c(c(O)c1=O)C(=O)N1CCCOC1C3CC2` (single isomer, unassigned) [Compound 57], the IC50 under setting [1] is 0.919 nM and the IC50 under setting [2] came out at 871 nM.
Turning to `CCNC1CC2C3OCCCN3C(=O)c3c(O)c(=O)c(C(=O)NCc4ccc(F)cc4F)c1n32` (centres unmarked) [Compound 205], the IC50 runs as follows: under setting [1], 11.3 nM; under setting [2], 116 nM.
In the same order, the values of `CC12OCCCN1C(=O)c1c(O)c(=O)c(C(=O)NCc3ccc(F)cc3F)c3n1C2CC3` (centres unmarked) [Compound 134] are 1.29 nM and 20.5 nM.
As to `COC1CC2C3OCCN3C(=O)c3c(O)c(=O)c(C(=O)NCc4ccc(F)cc4F)c1n32` (single isomer, unassigned) [Compound 77], the IC50 runs as follows: under setting [1], 1.56 nM; under setting [2], 2160 nM.
`O=C(NCc1ccccc1F)c1c2n3c(c(O)c1=O)C(=O)N1CCOC1C3CC2` (single isomer, unassigned) [Compound 10]: the IC50 is, setting by setting: under setting [4], 0.813 nM; under setting [2], 226 nM.
As for `CCNC1CC2C3OCCCN3C(=O)c3c(O)c(=O)c(C(=O)NCc4cccc(F)c4F)c1n32` (centres unmarked) [Compound 192], the IC50 is 8.76 nM under setting [1] and 92.3 nM under setting [2].
On to `O=C(NCc1ccc(F)cc1)c1c2n3c(c(O)c1=O)C(=O)N1CCCOC1C3CC2` (single isomer, unassigned) [Compound 51], for which the IC50 runs as follows: under setting [4], 1.25 nM; under setting [2], 32.6 nM.
In the case of `C[C@H]1CNC2C3CCc4c(C(=O)NCc5cccc(Cl)c5F)c(=O)c(O)c(n43)C(=O)N21` (some centres unmarked) [Compound 90], the IC50 was determined as 0.397 nM under setting [1] and 24.6 nM under setting [2].
For `O=C(NCc1cccc(Cl)c1F)c1c2n3c(c(O)c1=O)C(=O)N1C4CCC(C4)OC1C3CC2` (centres unmarked) [Compound 154], in that order: 4.14 nM and 79.2 nM.
`CCNC1CC2C3OCCCN3C(=O)c3c(O)c(=O)c(C(=O)NCc4c(F)cc(F)cc4F)c1n32` (centres unmarked) [Compound 180]: the IC50 under setting [1] worked out at 3.57 nM and the IC50 under setting [2] turned out to be 20.1 nM.
As for `C[C@H]1CN2C(=O)c3c(O)c(=O)c(C(=O)NCc4ccc(F)cc4F)c4n3C(CC4)C2N1` (some centres unmarked) [Compound 95], the IC50 was 2.59 nM under setting [4] and 124 nM under setting [3].
Take `C[C@H]1CCOC2C3CCc4c(C(=O)NCc5ccc(F)cc5F)c(=O)c(O)c(n43)C(=O)N21` (single isomer, unassigned) [Compound 63]: the IC50 runs as follows: under setting [1], 3.09 nM; under setting [2], 127 nM.
In the same order, the values of `CCNC1CC2C3OCCCN3C(=O)c3c(O)c(=O)c(C(=O)NCc4cccc(F)c4F)c1n32` (centres unmarked) [Compound 187] are 3.51 nM and 49.1 nM.
For the molecule `CCNC1C[C@H]2[C@H]3OC4CCC(C4)N3C(=O)c3c(O)c(=O)c(C(=O)NCc4ccc(F)cc4F)c1n32` (some centres unmarked) [Compound 177], the IC50 runs as follows: under setting [1], 11.2 nM; under setting [2], 191 nM.
For `CCNC1CC2C3OCCCN3C(=O)c3c(O)c(=O)c(C(=O)NCc4c(F)cc(F)cc4F)c1n32` (centres unmarked) [Compound 181], in that order: 6.41 nM and 29.9 nM.
As to `CN1CCN2C(=O)c3c(O)c(=O)c(C(=O)NCc4ccc(F)cc4F)c4n3C(CC4)C12C` (centres unmarked) [Compound 140], the IC50 under setting [1] was found to be 0.557 nM and the IC50 under setting [2] is 11.3 nM.
In the same order, the values of `C[C@H]1CN2C(=O)c3c(O)c(=O)c(C(=O)NCc4cccc(Cl)c4F)c4n3C(CC4)C2O1` (single isomer, unassigned) [Compound 44] are 0.879 nM and 378 nM.
On to `CC12OCCCN1C(=O)c1c(O)c(=O)c(C(=O)NCc3ccc(F)cc3F)c3n1C2CC3` (centres unmarked) [Compound 135], for which the IC50 by setting is: under setting [1], 0.791 nM; under setting [2], 1280 nM.
For `O=C(NCc1cccc(Cl)c1F)c1c2n3c(c(O)c1=O)C(=O)N1CCCCOC1C3CC2` (single isomer, unassigned) [Compound 65], in that order: 0.939 nM and 6680 nM.
As for `C[C@H]1CN2C(=O)c3c(O)c(=O)c(-c4nnc(Cc5ccc(F)cc5F)s4)c4n3C(CC4)C2N1` (some centres unmarked) [Compound 130], the IC50 is 3.53 nM under setting [4] and 92.8 nM under setting [2].
For `CCNC1CC2C3OCCCN3C(=O)c3c(O)c(=O)c(C(=O)NCc4cccc(Cl)c4F)c1n32` (centres unmarked) [Compound 196], the IC50 under setting [1] was determined as 15.3 nM and the IC50 under setting [2] stood at 883 nM.
For `O=C(NCc1c(F)cc(F)cc1F)c1c2n3c(c(O)c1=O)C(=O)N1C4CCC(C4)OC1C3CC2` (centres unmarked) [Compound 169], in that order: 2.71 nM and 42.9 nM.
On to `O=C(NCc1ccc(F)cc1)c1c2n3c(c(O)c1=O)C(=O)N1C4CCC(C4)OC1C3CC2` (centres unmarked) [Compound 163], for which the IC50 runs as follows: under setting [1], 4.32 nM; under setting [2], 1660 nM.
In the same order, the values of `C[C@H]1CNC2C3CCc4c(C(=O)NCc5ccc(F)cc5F)c(=O)c(O)c(n43)C(=O)N21` (some centres unmarked) [Compound 100] are 1.94 nM and 56.5 nM.
In the same order, the values of `O=C(NCc1cccc(F)c1F)c1c2n3c(c(O)c1=O)C(=O)N1C4CCC(C4)OC1C3CC2` (centres unmarked) [Compound 166] are 5.39 nM and 50.6 nM.
For `O=C(NCc1ccc(F)c(Cl)c1)c1c2n3c(c(O)c1=O)C(=O)N1CCOC1C3CC2` (single isomer, unassigned) [Compound 23], in that order: 1.06 nM and 2190 nM.
In the case of `CCN1C[C@H](C)N2C(=O)c3c(O)c(=O)c(C(=O)NCc4cccc(Cl)c4F)c4n3C(CC4)C12` (some centres unmarked) [Compound 111], the IC50 by setting is: under setting [4], 1.19 nM; under setting [2], 260 nM.
For `CN1CCCN2C(=O)c3c(O)c(=O)c(C(=O)NCc4ccc(F)cc4F)c4n3C(CC4)C12C` (centres unmarked) [Compound 142], the IC50 was 0.504 nM under setting [1] and 9.41 nM under setting [2].
`C[C@H]1COC2C3CCc4c(C(=O)NCc5cccc(Cl)c5F)c(=O)c(O)c(n43)C(=O)N21` (single isomer, unassigned) [Compound 30]: the IC50 is 0.536 nM under setting [1] and 838 nM under setting [2].
With `CCNC1CC2C3OCCCN3C(=O)c3c(O)c(=O)c(C(=O)NCc4ccc(F)cc4F)c1n32` (centres unmarked) [Compound 203], the IC50 runs as follows: under setting [1], 6.47 nM; under setting [2], 25.8 nM.
In the case of `COC1CC2C3OCCN3C(=O)c3c(O)c(=O)c(C(=O)NCc4ccc(F)cc4F)c1n32` (single isomer, unassigned) [Compound 74], the IC50 came out at 2.19 nM under setting [1] and 181 nM under setting [2].
In the same order, the values of `CCCN1C2C3CCc4c(C(=O)NCc5cccc(Cl)c5F)c(=O)c(O)c(n43)C(=O)N2C[C@@H]1C` (some centres unmarked) [Compound 107] are 2.82 nM and 272 nM.
For `CCNC1CC2C3OCCCN3C(=O)c3c(O)c(=O)c(C(=O)NCc4ccc(F)cc4F)c1n32` (centres unmarked) [Compound 206], in that order: 7.11 nM and 51.6 nM.
For the molecule `O=C(NCc1cccc(Cl)c1F)c1c2n3c(c(O)c1=O)C(=O)N1CCCCOC1C3CC2` (single isomer, unassigned) [Compound 67], the IC50 stood at 0.577 nM under setting [1] and 1470 nM under setting [2].
For `CC(C)N1C[C@H](C)N2C(=O)c3c(O)c(=O)c(C(=O)NCc4cccc(Cl)c4F)c4n3C(CC4)C12` (some centres unmarked) [Compound 115], the IC50 by setting is: under setting [4], 7.4 nM; under setting [3], 113 nM.
Regarding `COC1CC2C3OCCN3C(=O)c3c(O)c(=O)c(C(=O)NCc4ccc(F)cc4F)c1n32` (single isomer, unassigned) [Compound 76], the IC50 under setting [1] was 1.01 nM and the IC50 under setting [2] was 17.8 nM.
For `CCNC1CC2C3OCCCN3C(=O)c3c(O)c(=O)c(C(=O)NCc4cccc(Cl)c4F)c1n32` (centres unmarked) [Compound 199], in that order: 7.12 nM and 42.9 nM.
For `COC1CC2C3OCCN3C(=O)c3c(O)c(=O)c(C(=O)NCc4ccc(F)cc4F)c1n32` (single isomer, unassigned) [Compound 73], in that order: 0.679 nM and 49.4 nM.
For the molecule `C[C@H]1COC2C3CCc4c(C(=O)NCc5cccc(Cl)c5F)c(=O)c(O)c(n43)C(=O)N21` (single isomer, unassigned) [Compound 29], the IC50 under setting [4] was found to be 0.412 nM and the IC50 under setting [2] was determined as 3410 nM.
With `O=C(NCc1cccc(Cl)c1F)c1c2n3c(c(O)c1=O)C(=O)N1CCCO[C@H]1[C@H]3CC2` [Compound 47], the IC50 is, setting by setting: under setting [4], 2.39 nM; under setting [3], 2680 nM.

The values are drawn from patent publication US10829499B2, “Tetracyclic heterocycle compounds useful as HIV integrase inhibitors” (MERCK SHARP & DOHME CORP., priority 2016, dated 2020).
